Read-outs that look alike come from different tables or passages of the source.
Key:
Type in all cases: in vitro ADME
[1] = Transport of baicalin across MDCK II-WT cell monolayer (transwell); details: dog, MDCK, pH 7.4, MDCK II-WT; for efflux ratio at 120 min, 100 μM: read-out: ER
Method: (§1) The cells were inoculated at a density of 0.5 mL (1 × 10^5) in the upper layer of the transwell plate (AP side), and the culture was changed daily after the lower layer was added with 1.5 mL of complete medium without cells every other day. After 5–7 days of growth, the supernatant was aspirated and discarded, and the cell monolayer was rinsed twice with 37 °C Hank’s Balanced Salt Solution (HBSS, pH 7.4). The electrical resistance of the cell monolayer compartments was measured with a resistivity meter (TEER), and the integrity of the cell monolayer was monitored using TEER. The differentiation of MDCK II-WT, MDCK II-MRP2, MDCK II-MRP3, and MDCK II-BCRP cells was examined by determining sodium fluorescein permeability prior to transit experiments. This was done in order to determine the integrity of the cell monolayer. When the TEER value of the cell monolayer was greater than 150 Ω·cm^2 and the MDCK II-MRP2, MDCK II-MRP3, and MDCK II-BCRP sodium fluorescein permeability was less than 0.5 × 10^−6 cm/s or the MDCK II-WT sodium fluorescein permeability was less than 1 × 10^−6 cm/s, the cell monolayer was considered intact and suitable for transit experiments. TEER = (TEERcell monolayer − TEERblank) × Aarea(1) wherein TEERcell monolayer is the resistance of the cell monolayer read directly from the Millicell ERS-2 resistivity meter, and TEERblank is the resistance read by inserting a blank HBSS (no cells) only. Aarea is the surface area of the filter membrane, 1.12 cm^2.
(§2) In this experiment, a 100 μM baicalin solution (dissolved in HBSS) containing different concentrations of PEG400 (0.25%, 0.5%, and 1%) was employed as the test solution, while a solution without PEG400 was used as the blank test solution, which was added to AP or BL chambers, respectively. In the top to basolateral (AP-BL) transport experiment, the 0.5 mL sample added to the apical side (AP) was utilized as the supply room, and the HBSS preheated to 1.5 mL 37 °C was added to the basolateral (BL) as the receiving chamber. Conversely, in the basal low lateral to top (BL-AP) transport experiment, the 1.5 mL sample (dissolved in HBSS) was added to the BL side as the supply room, and the 0.5 mL preheated HBSS was added as a receiving room on the AP side. Once the aforementioned steps had been completed, the transwell was placed on a 37 °C thermostatic oscillator at 60 r/min, and 100 μL was withdrawn from the receiving cell or 10 μL from the supply chamber at 30, 60, 90, and 120 min, depending on the experiment, and replenished with an equal volume of blank 37 °C preheated HBSS. The samples were utilized to precipitate the proteins with 100 μL of methanol containing the internal standard for 10 min. After centrifugation at 16,000× g for 15 min at 4 °C, the supernatant was collected in a volume of 70 μL. The contents were determined by UPLC-MS/MS, and apparent permeability coefficients (PAPP) and efflux ratios (ER) were calculated.
(§3) The formulas for calculating Papp and ER of monolayer and monolayer are as follows:(2) Papp=dQ/dt/AC0 wherein dQ/dt (ng/mL·s) is the transit rate (ng/mL·s); A is the membrane area (1.12 cm^2); and C0 (ng/mL) is the initial concentration of the sample in the supply chamber. ER = PappBL-AP/PappAP-BL (3) wherein PappBL-AP is the apparent permeability coefficient when the BL is added to the sample, and PappAP-BL is the apparent permeability coefficient when the sample is added at the top side (AP).

MDCK II-WT cells = assay: as above; details: MDCK II-WT
Method: as §1, §2, §3

MRP2 = molecular target: T1, MRP2 (Homo sapiens, UniProt Q92887); assay: Transport of baicalin across MDCK II-MRP2 cell monolayer (transwell)
T1 construct: expressed in transfected cells; host or cells: MDCK II
Method: as §1, §2, §3

[2] = pH 7.4, MDCK II-MRP2, 100 μM BG + 0.25% PEG400
[3] = pH 7.4, MDCK II-MRP2, 100 μM BG + 0.5% PEG400
[4] = pH 7.4, MDCK II-MRP2, 100 μM BG + 1% PEG400
[5] = pH 7.4, MDCK II-MRP2, 100 μM BG alone

T1 sequence (Q92887 whole entry): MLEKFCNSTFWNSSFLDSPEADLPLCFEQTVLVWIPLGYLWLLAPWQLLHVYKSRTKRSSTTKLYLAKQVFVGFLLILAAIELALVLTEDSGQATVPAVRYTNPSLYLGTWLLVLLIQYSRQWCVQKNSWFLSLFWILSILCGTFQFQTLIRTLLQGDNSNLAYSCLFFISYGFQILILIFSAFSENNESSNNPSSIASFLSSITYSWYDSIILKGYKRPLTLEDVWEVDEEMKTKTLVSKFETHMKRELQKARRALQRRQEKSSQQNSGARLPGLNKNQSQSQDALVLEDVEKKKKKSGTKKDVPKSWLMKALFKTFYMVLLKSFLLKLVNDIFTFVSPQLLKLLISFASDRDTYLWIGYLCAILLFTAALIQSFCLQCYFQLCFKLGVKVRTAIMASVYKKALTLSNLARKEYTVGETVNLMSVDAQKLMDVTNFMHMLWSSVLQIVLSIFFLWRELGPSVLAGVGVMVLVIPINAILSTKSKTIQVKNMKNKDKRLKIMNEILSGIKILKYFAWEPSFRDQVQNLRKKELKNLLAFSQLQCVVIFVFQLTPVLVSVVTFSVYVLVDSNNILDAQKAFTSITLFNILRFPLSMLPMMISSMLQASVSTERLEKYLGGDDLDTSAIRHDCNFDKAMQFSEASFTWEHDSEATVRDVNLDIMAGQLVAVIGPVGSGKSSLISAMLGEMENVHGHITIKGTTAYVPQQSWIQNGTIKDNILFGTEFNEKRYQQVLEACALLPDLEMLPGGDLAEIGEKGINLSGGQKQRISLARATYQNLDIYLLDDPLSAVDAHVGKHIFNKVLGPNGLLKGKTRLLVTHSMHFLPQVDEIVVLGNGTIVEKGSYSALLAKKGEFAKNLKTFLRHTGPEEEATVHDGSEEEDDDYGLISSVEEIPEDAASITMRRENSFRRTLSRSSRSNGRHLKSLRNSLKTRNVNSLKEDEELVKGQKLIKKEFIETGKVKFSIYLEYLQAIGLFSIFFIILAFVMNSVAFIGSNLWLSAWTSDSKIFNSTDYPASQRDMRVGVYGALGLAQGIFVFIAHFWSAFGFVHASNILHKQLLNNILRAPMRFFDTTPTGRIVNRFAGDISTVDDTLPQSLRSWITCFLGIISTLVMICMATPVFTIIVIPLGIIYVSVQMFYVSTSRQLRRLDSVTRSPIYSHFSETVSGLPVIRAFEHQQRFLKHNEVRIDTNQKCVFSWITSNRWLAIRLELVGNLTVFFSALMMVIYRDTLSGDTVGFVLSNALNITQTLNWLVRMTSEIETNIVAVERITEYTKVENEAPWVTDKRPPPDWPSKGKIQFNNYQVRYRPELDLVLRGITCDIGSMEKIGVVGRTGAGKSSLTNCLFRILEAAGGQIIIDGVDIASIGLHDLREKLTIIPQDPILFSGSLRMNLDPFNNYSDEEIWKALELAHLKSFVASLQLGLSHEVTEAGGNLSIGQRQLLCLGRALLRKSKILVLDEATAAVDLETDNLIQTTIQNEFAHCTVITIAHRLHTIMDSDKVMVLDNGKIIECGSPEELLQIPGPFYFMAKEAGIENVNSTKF

For O=C(O)[C@H]1O[C@@H](Oc2cc3oc(-c4ccccc4)cc(=O)c3c(O)c2O)[C@H](O)[C@@H](O)[C@@H]1O [BG, Baicalein-7-O-β-D-glucuronide], which Papp A→B at 120 min, 100 μM ([1]; 100 μM BG + 0.25% PEG400) is on record?
Its Papp A→B at 120 min, 100 μM is 4.57 ± 1.08 ×10⁻⁶ cm/s.

What about the Papp B→A at 120 min, 100 μM ([1]; 100 μM BG + 0.25% PEG400) of the same compound?
The Papp B→A at 120 min, 100 μM was 7.94 ± 0.99 ×10⁻⁶ cm/s.

And the efflux ratio at 120 min, 100 μM ([1]; 100 μM BG + 0.25% PEG400)?
The efflux ratio at 120 min, 100 μM was 1.94 ± 0.27.

What about the Papp A→B at 120 min, 100 μM ([1]; 100 μM BG + 0.5% PEG400) of the same compound?
Its Papp A→B at 120 min, 100 μM is 5.24 ± 0.53 ×10⁻⁶ cm/s.

And the Papp B→A at 120 min, 100 μM ([1]; 100 μM BG + 0.5% PEG400)?
Its Papp B→A at 120 min, 100 μM is 6.78 ± 1.19 ×10⁻⁶ cm/s.

And the efflux ratio at 120 min, 100 μM ([1]; 100 μM BG + 0.5% PEG400)?
Its efflux ratio at 120 min, 100 μM is 1.53 ± 0.14.

What about the Papp A→B at 120 min, 100 μM ([1]; 100 μM BG + 1% PEG400) of the same compound?
Its Papp A→B at 120 min, 100 μM is 5.47 ± 0.94 ×10⁻⁶ cm/s.

What about the Papp B→A at 120 min, 100 μM ([1]; 100 μM BG + 1% PEG400) of the same compound?
Its Papp B→A at 120 min, 100 μM is 3.61 ± 0.26 ×10⁻⁶ cm/s.

What about the efflux ratio at 120 min, 100 μM ([1]; 100 μM BG + 1% PEG400) of the same compound?
The efflux ratio at 120 min, 100 μM was 1.19 ± 0.12.

What about the Papp A→B at 120 min, 100 μM ([1]; 100 μM BG alone) of the same compound?
The Papp A→B at 120 min, 100 μM was 3.18 ± 0.07 ×10⁻⁶ cm/s.

What about the Papp B→A at 120 min, 100 μM ([1]; 100 μM BG alone) of the same compound?
The Papp B→A at 120 min, 100 μM was 11.6 ± 1 ×10⁻⁶ cm/s.

And the efflux ratio at 120 min, 100 μM ([1]; 100 μM BG alone)?
Its efflux ratio at 120 min, 100 μM is 2.58 ± 0.27.

And the ER (MDCK II-WT cells; 100 μM BG + 0.25% PEG400)?
The ER was 1.8 ± 0.44.

What about the ER (MDCK II-WT cells; 100 μM BG + 0.5% PEG400) of the same compound?
The ER was 1.29 ± 0.11.

And the ER (MDCK II-WT cells; 100 μM BG + 1% PEG400)?
The ER was 0.67 ± 0.07.

And the ER (MDCK II-WT cells; 100 μM BG alone)?
Its ER is 3.64 ± 0.28.

What about the Papp A→B at 120 min, 100 μM (MRP2; [2]) of the same compound?
Its Papp A→B at 120 min, 100 μM is 1.27 ± 0.02 ×10⁻⁶ cm/s.

What about the Papp B→A at 120 min, 100 μM (MRP2; [2]) of the same compound?
Its Papp B→A at 120 min, 100 μM is 2.83 ± 0.26 ×10⁻⁶ cm/s.

And the efflux ratio at 120 min, 100 μM (MRP2; pH 7.4, MDCK II-MRP2, 100 μM BG + 0.25% PEG400, read-out: ER)?
The efflux ratio at 120 min, 100 μM was 2.22 ± 0.17.

What about the Papp A→B at 120 min, 100 μM (MRP2; [3]) of the same compound?
The Papp A→B at 120 min, 100 μM was 2.51 ± 0.07 ×10⁻⁶ cm/s.

And the Papp B→A at 120 min, 100 μM (MRP2; [3])?
Its Papp B→A at 120 min, 100 μM is 2.73 ± 0.31 ×10⁻⁶ cm/s.

And the efflux ratio at 120 min, 100 μM (MRP2; pH 7.4, MDCK II-MRP2, 100 μM BG + 0.5% PEG400, read-out: ER)?
The efflux ratio at 120 min, 100 μM was 1.08 ± 0.09.

What about the Papp A→B at 120 min, 100 μM (MRP2; [4]) of the same compound?
Its Papp A→B at 120 min, 100 μM is 3.17 ± 0.06 ×10⁻⁶ cm/s.

What about the Papp B→A at 120 min, 100 μM (MRP2; [4]) of the same compound?
Its Papp B→A at 120 min, 100 μM is 2.53 ± 0.17 ×10⁻⁶ cm/s.

What about the efflux ratio at 120 min, 100 μM (MRP2; pH 7.4, MDCK II-MRP2, 100 μM BG + 1% PEG400, read-out: ER) of the same compound?
The efflux ratio at 120 min, 100 μM was 0.8 ± 0.04.

What about the Papp A→B at 120 min, 100 μM (MRP2; [5]) of the same compound?
The Papp A→B at 120 min, 100 μM was 1.12 ± 0.11 ×10⁻⁶ cm/s.

And the Papp B→A at 120 min, 100 μM (MRP2; [5])?
The Papp B→A at 120 min, 100 μM was 3.28 ± 0.27 ×10⁻⁶ cm/s.

And the efflux ratio at 120 min, 100 μM (MRP2; pH 7.4, MDCK II-MRP2, 100 μM BG alone, read-out: ER)?
Its efflux ratio at 120 min, 100 μM is 2.45 ± 0.04.
